Assay results from ChEMBL document CHEMBL1201862, “PubChem BioAssay data set” (2004).
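Briefly, cells in 96-well plates were exposed to five compound concentrations for 48 h, and endpoints were estimated by linear interpolation. Abbreviation: GI50, concentration required for 50% inhibition of growth.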 The source made the active and inactive calls. Rule as the data show it: active = GI50 up to about 1.1 µM and inactive = higher.

How the values were obtained:
Test in all cases: NCI-60 cell line screen, 48 h
SF-295 = tested on: SF-295
NCI-H522 = tested on: NCI-H522
UACC-257 = tested on: UACC-257
DU-145 = tested on: DU-145
UACC-62 = tested on: UACC-62
KM12 = tested on: KM12
SK-MEL-2 = tested on: SK-MEL-2
M14 = tested on: M14
HCC 2998 = tested on: HCC 2998
U-251 = tested on: U-251
SN12C = tested on: SN12C
NCI-H460 = tested on: NCI-H460
BT-549 = tested on: BT-549
SK-OV-3 = tested on: SK-OV-3
HCT-15 = tested on: HCT-15
SF-268 = tested on: SF-268
SK-MEL-5 = tested on: SK-MEL-5
ACHN = tested on: ACHN
Malme-3M = tested on: Malme-3M

Compound | GI50 (SF-295) | GI50 (NCI-H522) | GI50 (UACC-257) | GI50 (DU-145) | GI50 (UACC-62) | GI50 (KM12) | GI50 (SK-MEL-2) | GI50 (M14) | GI50 (HCC 2998) | GI50 (U-251) | GI50 (SN12C) | GI50 (NCI-H460) | GI50 (BT-549) | GI50 (SK-OV-3) | GI50 (HCT-15) | GI50 (SF-268) | GI50 (SK-MEL-5) | GI50 (ACHN) | GI50 (Malme-3M)
Nc1ncnc2c1ccn2C/C=C/CO | > 100 µM (inactive) | > 100 µM (inactive) | > 100 µM (inactive) | > 100 µM (inactive) | > 100 µM (inactive) | > 100 µM (inactive) | > 100 µM (inactive) | > 100 µM (inactive) | > 100 µM (inactive) | > 100 µM (inactive) | > 100 µM (inactive) | > 100 µM (inactive) | > 100 µM (inactive) | > 100 µM (inactive) | > 100 µM | > 100 µM (inactive) | > 100 µM (inactive) | > 100 µM (inactive) | > 100 µM (inactive)
CC(C)C(OC(=O)c1ccc(NCC2=CC(=O)C=CC2=O)cc1)C(C)C | 13.2 µM (inactive) | 1.22 µM (inactive) | 7.76 µM (inactive) | 18.4 µM (inactive) | 6.44 µM (inactive) | 11.5 µM (inactive) | 11.6 µM (inactive) | 6.52 µM (inactive) | 13.6 µM (inactive) | 3.32 µM (inactive) | 9.16 µM (inactive) | 14.6 µM (inactive) | 3.52 µM (inactive) | 13.8 µM (inactive) | 2.97 µM | 12.1 µM (inactive) | 10.6 µM (inactive) | 9.1 µM (inactive) | 8.89 µM (inactive)
CC(C)(C)OC(=O)NCCCC(=O)NC1(c2cc3ccccc3s2)CCCCC1 | 16.6 µM (inactive) | 13.1 µM (inactive) | 13.6 µM (inactive) | 24.8 µM (inactive) | 10.8 µM (inactive) | 17 µM (inactive) | – | 18 µM (inactive) | 21.6 µM (inactive) | – | 17.5 µM (inactive) | 17 µM (inactive) | 15.1 µM (inactive) | 29.6 µM (inactive) | 15.6 µM | 17.9 µM (inactive) | 5.89 µM (inactive) | 22.8 µM (inactive) | 16.2 µM (inactive)
CCCCCCN1CCc2c(C)c(C#N)c3nc4ccccc4n3c21 | > 100 µM (inactive) | 31.4 µM (inactive) | 16.3 µM (inactive) | > 100 µM (inactive) | 30.1 µM (inactive) | – | 22.2 µM (inactive) | 63.5 µM (inactive) | 49.3 µM (inactive) | 12.4 µM (inactive) | > 100 µM (inactive) | 16 µM (inactive) | 65.3 µM (inactive) | > 100 µM (inactive) | 27.6 µM | > 100 µM (inactive) | 11.4 µM (inactive) | > 100 µM (inactive) | 83.2 µM (inactive)
COc1ccccc1C(=O)c1c(NCc2ccccc2)c(=O)c1=O | > 100 µM (inactive) | 11.5 µM (inactive) | > 100 µM (inactive) | > 100 µM (inactive) | > 100 µM (inactive) | > 100 µM (inactive) | > 100 µM (inactive) | > 100 µM (inactive) | > 100 µM (inactive) | 66.4 µM (inactive) | > 100 µM (inactive) | > 100 µM (inactive) | 66.8 µM (inactive) | > 100 µM (inactive) | 27.4 µM | > 100 µM (inactive) | > 100 µM (inactive) | > 100 µM (inactive) | 23.4 µM (inactive)
COC1=C(C)C(=O)c2c(c(COC(N)=O)c3n2CC(OC(C)=O)C3OC(C)=O)C1=O (centres undefined) | 0.0631 µM (active) | 0.0137 µM (active) | 0.115 µM (active) | 0.0251 µM (active) | 0.0857 µM (active) | 0.228 µM (active) | 0.191 µM (active) | 0.0977 µM (active) | 0.111 µM (active) | 0.0944 µM (active) | 0.0944 µM (active) | < 0.01 µM (active) | 0.296 µM (active) | 0.41 µM (active) | 0.0126 µM | 0.0766 µM (active) | 0.133 µM (active) | < 0.01 µM (active) | 0.0493 µM (active)
CCOC(=O)CCC(NC(=O)c1ccc(OCc2ccc3nc(OC)c(OC)nc3c2)cc1)C(=O)OCC (centres undefined) | 59.4 µM (inactive) | 24.7 µM (inactive) | 29.1 µM (inactive) | 69.5 µM (inactive) | 30.4 µM (inactive) | > 100 µM (inactive) | 23.3 µM (inactive) | 21.9 µM (inactive) | 50.1 µM (inactive) | > 100 µM (inactive) | 45.3 µM (inactive) | 22.6 µM (inactive) | 43.3 µM (inactive) | > 100 µM (inactive) | 75.5 µM | 57.7 µM (inactive) | 38.4 µM (inactive) | 32.9 µM (inactive) | 21.4 µM (inactive)
Cc1cn([C@@H]2O[C@H](CO)[C@@H](O)[C@@H]2O)c(=O)[nH]c1=O | > 1000 µM (inactive) | > 1000 µM (inactive) | > 1000 µM (inactive) | > 1000 µM (inactive) | > 1000 µM (inactive) | > 1000 µM (inactive) | > 1000 µM (inactive) | > 1000 µM (inactive) | > 1000 µM (inactive) | > 1000 µM (inactive) | > 1000 µM (inactive) | > 1000 µM (inactive) | > 1000 µM (inactive) | > 1000 µM (inactive) | > 1000 µM | > 1000 µM (inactive) | > 1000 µM (inactive) | > 1000 µM (inactive) | > 1000 µM (inactive)
CC(C)NC(=O)OCc1c(COC(=O)NC(C)C)c(-c2ccc[n+](COC(=O)C3CCCCC3)c2)n2c1CCC2 | 47.8 µM (inactive) | 25.1 µM (inactive) | > 100 µM (inactive) | 28.4 µM (inactive) | 24.8 µM (inactive) | > 100 µM (inactive) | 44.6 µM (inactive) | 56 µM (inactive) | > 100 µM (inactive) | 55.6 µM (inactive) | 47.6 µM (inactive) | 27.9 µM (inactive) | 48.1 µM (inactive) | 39.1 µM (inactive) | 85.5 µM | 42.6 µM (inactive) | 70.8 µM (inactive) | 27.3 µM (inactive) | 62.5 µM (inactive)
O=[N+]([O-])c1cc2oc(CSc3ccccc3)nc2cc1Cl | 28.2 µM (inactive) | 29.3 µM (inactive) | 28.6 µM (inactive) | 37.7 µM (inactive) | 36.2 µM (inactive) | 32 µM (inactive) | 26 µM (inactive) | 32.9 µM (inactive) | 23.5 µM (inactive) | 23.6 µM (inactive) | 29.9 µM (inactive) | 26.7 µM (inactive) | 23.4 µM (inactive) | 29.5 µM (inactive) | 19.2 µM | 58.7 µM (inactive) | 16.6 µM (inactive) | 59.7 µM (inactive) | 50 µM (inactive)
O=C(c1ccc(Cl)cc1)N(C(=S)OCCOc1ccccc1)c1ccccc1 | 27.6 µM (inactive) | 19.1 µM (inactive) | 18.7 µM (inactive) | 17.3 µM (inactive) | 16.3 µM (inactive) | 19.1 µM (inactive) | 22.1 µM (inactive) | 16.1 µM (inactive) | 19.5 µM (inactive) | 16.2 µM (inactive) | 19.3 µM (inactive) | 23.2 µM (inactive) | 20.2 µM (inactive) | 36.1 µM (inactive) | 19.3 µM | 25.1 µM (inactive) | – | 20.3 µM (inactive) | 29 µM (inactive)
COc1ccc2cc3c4cc5c(cc4cc[n+]3cc2c1OC)OCO5 | 5.53 µM (inactive) | 3.63 µM (inactive) | 6.46 µM (inactive) | 30.3 µM (inactive) | 12.3 µM (inactive) | 2.88 µM (inactive) | 22.8 µM (inactive) | 15.2 µM (inactive) | 22 µM (inactive) | 0.615 µM (active) | 2.52 µM (inactive) | 17.9 µM (inactive) | 1.63 µM (inactive) | 29.4 µM (inactive) | 83.2 µM | 2.94 µM (inactive) | 3.39 µM (inactive) | 38.4 µM (inactive) | 4.83 µM (inactive)
Cc1ccc(OCC2OC(n3cnc4c(Cl)nc(N)nc43)CC2Oc2ccc(C)cc2)cc1 (centres undefined) | 15.2 µM (inactive) | 3.61 µM (inactive) | 63.7 µM (inactive) | 40.8 µM (inactive) | > 63.5 µM (inactive) | > 51.8 µM (inactive) | > 38.1 µM (inactive) | 9.27 µM (inactive) | 24.4 µM (inactive) | > 55.6 µM (inactive) | 10.4 µM (inactive) | 40.6 µM (inactive) | 43.3 µM (inactive) | > 69 µM (inactive) | 31 µM | 41.6 µM (inactive) | 30.9 µM (inactive) | 15.6 µM (inactive) | 24.5 µM (inactive)
COc1ccc(OCC(=N/NC(=O)c2ccncc2)/N=C/c2cccnc2)cc1 | 84.7 µM (inactive) | 13.1 µM (inactive) | > 100 µM (inactive) | > 100 µM (inactive) | 43.4 µM (inactive) | 50.9 µM (inactive) | > 100 µM (inactive) | 60.5 µM (inactive) | 83.9 µM (inactive) | > 100 µM (inactive) | > 100 µM (inactive) | > 100 µM (inactive) | > 100 µM (inactive) | > 100 µM (inactive) | 60.7 µM | > 100 µM (inactive) | – | 72.8 µM (inactive) | 43.6 µM (inactive)
C=C1OC(c2ccccc2NC)=NC12CCCCC2 | > 100 µM (inactive) | > 100 µM (inactive) | > 100 µM (inactive) | > 100 µM (inactive) | > 100 µM (inactive) | > 100 µM (inactive) | – | > 100 µM (inactive) | > 100 µM (inactive) | > 100 µM (inactive) | > 100 µM (inactive) | > 100 µM (inactive) | > 100 µM (inactive) | > 100 µM (inactive) | > 100 µM | > 100 µM (inactive) | > 100 µM (inactive) | > 100 µM (inactive) | > 100 µM (inactive)
